Patent publication US20120004282A1, “RNA Interference Mediated Inhibition of the Intercellular Adhesion Molecule 1 (ICAM-1) Gene Expression Using Short Interfering Nucleic Acid (siNA)” (Merck Sharp & Dohme Corp,, priority 2009, published 2012)
[invAb] = inverted abasic unit; d = 2'-deoxy (DNA); m = 2'-O-methyl; r = 2'-OH (RNA); f = 2'-fluoro

What follows are substances tested on ICAM-1 mRNA (assay: ICAM-1 mRNA knock-down in transfected Calu-1 cells (Taqman RT-PCR)). Details: Calu-1 cells, 10 nM siNA, 24 hrs post-transfection, mean ± S.D., relative to non-targeting control.
Format: cell-based, human
Description: Calu-1 (human; ATCC cat# HTB-54): Cells were cultured at 37° C. in the presence of 5% CO2 and grown in McCoy's 5a medium supplemented with fetal bovine serum at a final concentration of 10% and 100 μg/mL of streptomycin and 100 U/mL penicillin.
All transfections were performed using RNAiMax (Invitrogen Cat# 13778-150) as per the manufacturer's instructions.
Calu-1 cells were plated in all wells of a tissue-culture treated, 96-well plate at final counts of 5,000 cells/well in 100 μL of appropriate culture media. Cells were cultured for 24 hours after plating at 37° C. in the presence of 5% CO2.
After 24 hours, complexes containing siNA and RNAiMax were created as follows. A solution of RNAiMax diluted 33-fold in OPTI-MEM was prepared. In parallel, solutions of the siNAs for testing were prepared to a final concentration of 120 nM in OPTI-MEM. After incubation of RNAiMax/OPTI-MEM solution at room temperature for 5 min, an equal volume of the siNA solution and the RNAiMax solution were added together for each of the siNAs. […] This solution was incubated at room temperature for 20 minutes. After incubation, 20 uL of the solution was added to each of the relevant wells. The final concentration of siNA in each well was 10 nM and the final volume of RNAiMax in each well was 0.3 uL.
The time of incubation with the RNAiMax-siNA complexes was 24 hours, unless otherwise indicated. There was no change in media between the transfection and harvesting of the cells unless otherwise indicated.
Dose response curves were carried out in a similar fashion in 96-well plates, while maintaining a constant amount of RNAiMax in each transfection.
RNA was extracted from a 96-well plate using the TaqMan® Gene Expression Cells-to-CT™ Kit (Cat# 4399002) with a modified protocol. Briefly, a 60 uL (1 plate) or 110 uL (2 plates) of the Lysis Solution with DNase I was dispensed into each well of the Lysis Buffer Plate (twin.tec full skirt plate). The lysis buffer and stop plates were stored at 4° C. until the cells were washed.
The plate was spun at 1100 rpm for 5 minutes. The culture medium was aspirated and discarded from the wells of the culture plate. The lysis was performed automatically using a BioMek FX instrument and method. After the Biomek method was completed, the lysis plate was incubated for 2 min. at room temperature. The lysis plate can be stored for 2 hours at 4° C., or at −20° C. or −80° C. for two months.
Each well of the reverse transcription plate required 10 uL of 2× reverse transcriptase Buffer, 1 uL of 20× reverse transcription enzyme and 2 uL of nuclease-free water. The reverse transcription master mix was prepared by mixing 2× reverse transcription buffer, 20× reverse transcription enzyme mix, and nuclease-free water. 13 uL of the reverse transcription master mix was dispensed into each well of the reverse transcription plate (semi-skirted). A separate reverse transcription plate was prepared for each cell plate. The plate was loaded onto a Biomek NX or Biomek FX Dual-96 and the Biomek method was run. The program is programmed to automatically added 7 uL of lysate from the cell lysis procedure described above into each well of the reverse transcription plate. The plate is sealed and spun on a centrifuge (1000 rpm for 30 seconds) to settle the contents to the bottom of the reverse transcription plate. The plate is placed in a thermocycler at 37° C. for 60 min, 95° C. for 5 min, and 4° C. until the plate is removed from the thermocycler. Upon removal, if not used immediately, the plate was frozen at −20° C.
A series of probes and primers were used to detect the various mRNA transcripts of the genes of ICAM-1 and ICAM-2 in human cell lines (see Table 2). All the Taqman probes and primers for the experiments here-in described were supplied as pre-validated sets by Applied Biosystems, Inc., (see Table 2). The assays were performed on an ABI 7900 instrument, according to the manufacturer's instructions. […]

Substance | % KD Human [%]
48715-DC: siNA duplex, ICAM-1 target site 1828 (m); sense B AcuuGuAGccucAGAGcuA TTB; antisense UAGcucuGAGGcuAcAAGuUU (sense ACUUGUAGCCUCAGAGCUATT; antisense UAGCUCUGAGGCUACAAGUUU; sense: DNA at AGT, 2'-fluoro at CU, [invAb] at 5' end, 3' end, backbone not given here; antisense: sugars from the 5' end rrrffffmmmmffmfmmmfmm, backbone not given here) | 14 ± 12
48699-DC: siNA duplex, ICAM-1 target site 668 (m); sense B GcuGGcAuuGuucucuAAu TTB; antisense AUUAGAGAAcAAuGccAGcUU (sense GCUGGCAUUGUUCUCUAAUTT; antisense AUUAGAGAACAAUGCCAGCUU; sense: DNA at AGT, 2'-fluoro at CU, [invAb] at 5' end, 3' end, backbone not given here; antisense: sugars from the 5' end rrrmmmmmmfmmfmffmmfmm, backbone not given here) | 25 ± 9
48706-DC: siNA duplex, ICAM-1 target site 250 (m); sense B GcuuGGAGAcucAGuGGcu TTB; antisense AGCcAcuGAGucuccAAGcUU (sense GCUUGGAGACUCAGUGGCUTT; antisense AGCCACUGAGUCUCCAAGCUU; sense: DNA at AGT, 2'-fluoro at CU, [invAb] at 5' end, 3' end, backbone not given here; antisense: sugars from the 5' end rrrfmffmmmfffffmmmfmm, backbone not given here) | 23 ± 31
48705-DC: siNA duplex, ICAM-1 target site 987 (m); sense B AGGAccuuAAcAGucuAcA TTB; antisense UGUAGAcuGuuAAGGuccuUU (sense AGGACCUUAACAGUCUACATT; antisense UGUAGACUGUUAAGGUCCUUU; sense: DNA at AGT, 2'-fluoro at CU, [invAb] at 5' end, 3' end, backbone not given here; antisense: sugars from the 5' end rrrmmmffmffmmmmffffmm, backbone not given here) | 5 ± 51
48701-DC: siNA duplex, ICAM-1 target site 1505 (m); sense B AGuAcuGuAccAcucucAA TTB; antisense UUGAGAGuGGuAcAGuAcuUU (sense AGUACUGUACCACUCUCAATT; antisense UUGAGAGUGGUACAGUACUUU; sense: DNA at AGT, 2'-fluoro at CU, [invAb] at 5' end, 3' end, backbone not given here; antisense: sugars from the 5' end rrrmmmmfmmfmfmmfmffmm, backbone not given here) | 3 ± 17
48712-DC: siNA duplex, ICAM-1 target site 1579 (m); sense B uGAuGGcAGccucuuAuGu TTB; antisense ACAuAAGAGGcuGccAucAUU (sense UGAUGGCAGCCUCUUAUGUTT; antisense ACAUAAGAGGCUGCCAUCAUU; sense: DNA at AGT, 2'-fluoro at CU, [invAb] at 5' end, 3' end, backbone not given here; antisense: sugars from the 5' end rrrfmmmmmmffmffmffmmm, backbone not given here) | 34 ± 27
48711-DC: siNA duplex, ICAM-1 target site 1577 (m); sense B cGuGAuGGcAGccucuuAu TTB; antisense AUAAGAGGcuGccAucAcGUU (sense CGUGAUGGCAGCCUCUUAUTT; antisense AUAAGAGGCUGCCAUCACGUU; sense: DNA at AGT, 2'-fluoro at CU, [invAb] at 5' end, 3' end, backbone not given here; antisense: sugars from the 5' end rrrmmmmmffmffmffmfmmm, backbone not given here) | 42 ± 13
48702-DC: siNA duplex, ICAM-1 target site 990 (m); sense B AccuuAAcAGucuAcAAcu TTB; antisense AGUuGuAGAcuGuuAAGGuUU (sense ACCUUAACAGUCUACAACUTT; antisense AGUUGUAGACUGUUAAGGUUU; sense: DNA at AGT, 2'-fluoro at CU, [invAb] at 5' end, 3' end, backbone not given here; antisense: sugars from the 5' end rrrfmfmmmffmffmmmmfmm, backbone not given here) | 19 ± 6
48709-DC: siNA duplex, ICAM-1 target site 988 (m); sense B GGAccuuAAcAGucuAcAA TTB; antisense UUGuAGAcuGuuAAGGuccUU (sense GGACCUUAACAGUCUACAATT; antisense UUGUAGACUGUUAAGGUCCUU; sense: DNA at AGT, 2'-fluoro at CU, [invAb] at 5' end, 3' end, backbone not given here; antisense: sugars from the 5' end rrrfmmmffmffmmmmfffmm, backbone not given here) | 32 ± 14
48725-DC: siNA duplex, ICAM-1 target site 1143 (h); sense B cAGucAGuGuGAccGcAGA TTB; antisense UCUGcGGucAcAcuGAcuGUU (sense CAGUCAGUGUGACCGCAGATT; antisense UCUGCGGUCACACUGACUGUU; sense: DNA at AGT, 2'-fluoro at CU, [invAb] at 5' end, 3' end, backbone not given here; antisense: sugars from the 5' end rrrmfmmffmfmffmmffmmm, backbone not given here) | 53 ± 19
48718-DC: siNA duplex, ICAM-1 target site 1938 (h); sense B cucuuccucGGccuucccA TTB; antisense UGGGAAGGccGAGGAAGAGUU (sense CUCUUCCUCGGCCUUCCCATT; antisense UGGGAAGGCCGAGGAAGAGUU; sense: sugars from the 5' end f9 d2 f7 d3, [invAb] at 5' end, 3' end, backbone not given here; antisense: sugars from the 5' end r4 m4 f2 m11, backbone not given here) | 19 ± 11
48719-DC: siNA duplex, ICAM-1 target site 1230 (h); sense B cAGuGAccAucuAcAGcuu TTB; antisense AAGcuGuAGAuGGucAcuGUU (sense CAGUGACCAUCUACAGCUUTT; antisense AAGCUGUAGAUGGUCACUGUU; sense: DNA at AGT, 2'-fluoro at CU, [invAb] at 5' end, 3' end, backbone not given here; antisense: sugars from the 5' end rrrffmfmmmfmmffmffmmm, backbone not given here) | 71 ± 9
29289-DC: siNA duplex, ICAM-1 target site 2152 (h); sense B GGAGcAAGAcucAAGAcAu TTB; antisense AUGucuuGAGucuuGcuccUU (sense GGAGCAAGACUCAAGACAUTT; antisense AUGUCUUGAGUCUUGCUCCUU; sense: DNA at AGT, 2'-fluoro at CU, [invAb] at 5' end, 3' end, backbone not given here; antisense: sugars from the 5' end rrrffffmmmffffmffffmm, backbone not given here) | 78 ± 15
